# In PubChem BioAssay AID1963845 (Molecular Pharmacology Branch, DTP, NCI, 2024):
# Test system: 429239-143-T-J1-PDC complex spheroid viability
# Test: Anticancer human tumor 429239-143-T-J1-PDC patient-derived small cell lung carcinoma cell line growth inhibition [POLQ]
# Conditions: for IC50: curve of first compound; for viability, T/C: stronger effect = lower value
# Outline: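 Complex spheroid viability model combining PDC tumour cells with endothelial (HUVEC) and MSC stromal cells. Novobiocin, ART-558 or RP6685 were tested singly and in combination with standard and investigational anticancer drugs. Each was titrated in half-log steps from near clinical Cmax, or from 10 microM where Cmax was unknown.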
# 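Note: luminescence signal used as surrogate measure of viable cells; spheroids exposed to compounds for seven days before readout.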
# 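Throughout, for viability, T/C: 100% = DMSO vehicle control viability as luminescence relative to vehicle.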
structure (smiles),measurement,setting,value
C=CCn1c(=O)c2cnc(Nc3ccc(N4CCN(C)CC4)cc3)nc2n1-c1cccc(C(C)(C)O)n1 + COC1C(OC(N)=O)C(O)C(Oc2ccc3c(O)c(NC(=O)c4ccc(O)c(CC=C(C)C)c4)c(=O)oc3c2C)OC1(C)C,IC50,second compound 0.0316 µM,576 nM
same,IC50,second compound 0.1 µM,464 nM
same,IC50,second compound 0.316 µM,591 nM
same,IC50,second compound 1 µM,580 nM
same,IC50,second compound 3.16 µM,632 nM
same,IC50,second compound 10 µM,600 nM
same,"viability, T/C","second compound 0.0316 µM, first compound 0.00316 µM",105%
same,"viability, T/C","second compound 0.0316 µM, first compound 0.01 µM",93%
same,"viability, T/C","second compound 0.0316 µM, first compound 0.0316 µM",104%
same,"viability, T/C","second compound 0.0316 µM, first compound 0.1 µM",104%
same,"viability, T/C","second compound 0.0316 µM, first compound 0.316 µM",85.7%
same,"viability, T/C","second compound 0.0316 µM, first compound 1 µM",17.1%
same,"viability, T/C","second compound 0.1 µM, first compound 0.00316 µM",92%
same,"viability, T/C","second compound 0.1 µM, first compound 0.01 µM",104%
same,"viability, T/C","second compound 0.1 µM, first compound 0.0316 µM",92.6%
same,"viability, T/C","second compound 0.1 µM, first compound 0.1 µM",105%
same,"viability, T/C","second compound 0.1 µM, first compound 0.316 µM",66%
same,"viability, T/C","second compound 0.1 µM, first compound 1 µM",17.8%
same,"viability, T/C","second compound 0.316 µM, first compound 0.00316 µM",110%
same,"viability, T/C","second compound 0.316 µM, first compound 0.01 µM",88.2%
same,"viability, T/C","second compound 0.316 µM, first compound 0.0316 µM",107%
same,"viability, T/C","second compound 0.316 µM, first compound 0.1 µM",118%
same,"viability, T/C","second compound 0.316 µM, first compound 0.316 µM",82.5%
same,"viability, T/C","second compound 0.316 µM, first compound 1 µM",22.7%
same,"viability, T/C","second compound 1 µM, first compound 0.00316 µM",95.3%
same,"viability, T/C","second compound 1 µM, first compound 0.01 µM",83.5%
same,"viability, T/C","second compound 1 µM, first compound 0.0316 µM",101%
same,"viability, T/C","second compound 1 µM, first compound 0.1 µM",88.7%
same,"viability, T/C","second compound 1 µM, first compound 0.316 µM",82.2%
same,"viability, T/C","second compound 1 µM, first compound 1 µM",21%
same,"viability, T/C","second compound 3.16 µM, first compound 0.00316 µM",98.8%
same,"viability, T/C","second compound 3.16 µM, first compound 0.01 µM",90%
same,"viability, T/C","second compound 3.16 µM, first compound 0.0316 µM",94.2%
same,"viability, T/C","second compound 3.16 µM, first compound 0.1 µM",96.3%
same,"viability, T/C","second compound 3.16 µM, first compound 0.316 µM",97.1%
same,"viability, T/C","second compound 3.16 µM, first compound 1 µM",20%
same,"viability, T/C","second compound 10 µM, first compound 0.00316 µM",91.7%
same,"viability, T/C","second compound 10 µM, first compound 0.01 µM",83.2%
same,"viability, T/C","second compound 10 µM, first compound 0.0316 µM",85.1%
same,"viability, T/C","second compound 10 µM, first compound 0.1 µM",83.7%
same,"viability, T/C","second compound 10 µM, first compound 0.316 µM",84%
same,"viability, T/C","second compound 10 µM, first compound 1 µM",22.8%
